Tests used:
Type in all cases: functional
HeLa [1] = assay: Induction of apoptosis in human HeLa cells assessed as late apoptotic cells at 1 uM after 24 hrs by Annexin V-APC/propidium iodide staining-based FACScan flow cytometric analysis (reference value: 7.22%)
HeLa [2] = assay: Induction of apoptosis in human HeLa cells assessed as necrotic cells at 2 uM after 24 hrs by Annexin V-APC/propidium iodide staining-based FACScan flow cytometric analysis (reference value: 1.18%)
HeLa [3] = assay: Induction of apoptosis in human HeLa cells assessed as necrotic cells at 6 uM after 36 hrs by Annexin V-APC/propidium iodide staining-based FACScan flow cytometric analysis (reference value: 0.725%)
HeLa [4] = assay: Cell cycle arrest in human HeLa cells assessed as accumulation of cells at S phase at 8 uM after 24 hrs by propidium iodide staining-based FACScan flow cytometric analysis (reference value: 20.16%)
HeLa [5] = assay: Induction of apoptosis in human HeLa cells assessed as necrotic cells at 6 uM after 24 hrs by Annexin V-APC/propidium iodide staining-based FACScan flow cytometric analysis (reference value: 0.725%)

For `CC(C)=CC[C@@H](OC(=O)CCCC[C@@H]1CCSC(c2ccccc2)S1)C1=CC(=O)c2c(O)ccc(O)c2C1=O` (stereo not given in full), the Activity (HeLa [1]) was 42.7%, the Activity (HeLa [2]) was 11.9% and the Activity (HeLa [3]) was 5.03%. The Activity (HeLa [4]) was 32.14% and the Activity (HeLa [5]) was 10%.
